Source: patent US9101616B2, “Aryl substituted carboxamide derivatives as calcium or sodium channel blockers” (RaQualia Pharma Inc., priority 2009, dated 2015)

biological target: T1, human T-type channel alpha-1H (CaV 3.2) (Homo sapiens, UniProt O95180); experiment: Ca2+ Influx Assay (cell-based fluorescent, FDSS); conditions: HEK 293 cells expressing human CaV 3.2
T1 construct: expressed in transfected cells; host or cells: HEK 293
Description: Inhibition of T-type calcium channel activity was determined by cell-based flu-orescent Ca^2+ influx assay, in which potassium ionophore was added to decrease resting membrane potential and extra-cellular high-K^+ stimulation was used to modulate the membrane potential of the cell. The changes in fluorescent signal were monitored by the cell imaging technology by Hamamatsu Photonics's Functional Drug Screening System (FDSS).
HEK 293 cells expressing the human T-type channel alpha-1H (CaV 3.2) were maintained in DMEM supplemented with 10% heat-inactivated FBS, 100 units/ml Penicillin, 100 microg/ml Streptomycin, 150 microg/ml Zeocin, 300 microg/ml Geneticin. The cells were grown in a 5% CO2 humidified incubator at 37° C.
• 1. Cells were harvested and seeded in a poly-D-lysine coated black-sided clear bottom 384-well plate at density of 10,000 cells/well at 24 hours prior to assay. • 2. Incubate at 37° C. in 5% CO2. Day Two: • 1. Wash each well with assay buffer (see below) and leave 20 RI using plate washer, ELx-405 Select CW (BIO-TEK). • 2. Add 20 μL of assay buffer containing 6 μM Fluo-4-AM (Molecular Probes) and 0.005% Pluronic F-127 to each well. • 3. Incubate the plate at 37° C. for 1 hour. • 4. Wash each well assay buffer (see below) and leave 20 μl using plate washer, ELx-405 Select CW (BIO-TEK). • 5. Add 10 μl of compound solution into each well by FDSS6000 and leave the plate for 4.5 min, and then add 10 μl of potassium ionophore solution. • 6. Add 20 μl of high-K^+ depolarizing solution (see below) and monitor the change of fluorescent signal.
The IC50 values for compounds of the present invention were determined from 7-point dose-response studies. Curves were generated using the average of duplicate wells for each data point. Finally, the IC50 values are calculated with the best-fit dose curve determined by XLfit.

T1 sequence (O95180 whole entry): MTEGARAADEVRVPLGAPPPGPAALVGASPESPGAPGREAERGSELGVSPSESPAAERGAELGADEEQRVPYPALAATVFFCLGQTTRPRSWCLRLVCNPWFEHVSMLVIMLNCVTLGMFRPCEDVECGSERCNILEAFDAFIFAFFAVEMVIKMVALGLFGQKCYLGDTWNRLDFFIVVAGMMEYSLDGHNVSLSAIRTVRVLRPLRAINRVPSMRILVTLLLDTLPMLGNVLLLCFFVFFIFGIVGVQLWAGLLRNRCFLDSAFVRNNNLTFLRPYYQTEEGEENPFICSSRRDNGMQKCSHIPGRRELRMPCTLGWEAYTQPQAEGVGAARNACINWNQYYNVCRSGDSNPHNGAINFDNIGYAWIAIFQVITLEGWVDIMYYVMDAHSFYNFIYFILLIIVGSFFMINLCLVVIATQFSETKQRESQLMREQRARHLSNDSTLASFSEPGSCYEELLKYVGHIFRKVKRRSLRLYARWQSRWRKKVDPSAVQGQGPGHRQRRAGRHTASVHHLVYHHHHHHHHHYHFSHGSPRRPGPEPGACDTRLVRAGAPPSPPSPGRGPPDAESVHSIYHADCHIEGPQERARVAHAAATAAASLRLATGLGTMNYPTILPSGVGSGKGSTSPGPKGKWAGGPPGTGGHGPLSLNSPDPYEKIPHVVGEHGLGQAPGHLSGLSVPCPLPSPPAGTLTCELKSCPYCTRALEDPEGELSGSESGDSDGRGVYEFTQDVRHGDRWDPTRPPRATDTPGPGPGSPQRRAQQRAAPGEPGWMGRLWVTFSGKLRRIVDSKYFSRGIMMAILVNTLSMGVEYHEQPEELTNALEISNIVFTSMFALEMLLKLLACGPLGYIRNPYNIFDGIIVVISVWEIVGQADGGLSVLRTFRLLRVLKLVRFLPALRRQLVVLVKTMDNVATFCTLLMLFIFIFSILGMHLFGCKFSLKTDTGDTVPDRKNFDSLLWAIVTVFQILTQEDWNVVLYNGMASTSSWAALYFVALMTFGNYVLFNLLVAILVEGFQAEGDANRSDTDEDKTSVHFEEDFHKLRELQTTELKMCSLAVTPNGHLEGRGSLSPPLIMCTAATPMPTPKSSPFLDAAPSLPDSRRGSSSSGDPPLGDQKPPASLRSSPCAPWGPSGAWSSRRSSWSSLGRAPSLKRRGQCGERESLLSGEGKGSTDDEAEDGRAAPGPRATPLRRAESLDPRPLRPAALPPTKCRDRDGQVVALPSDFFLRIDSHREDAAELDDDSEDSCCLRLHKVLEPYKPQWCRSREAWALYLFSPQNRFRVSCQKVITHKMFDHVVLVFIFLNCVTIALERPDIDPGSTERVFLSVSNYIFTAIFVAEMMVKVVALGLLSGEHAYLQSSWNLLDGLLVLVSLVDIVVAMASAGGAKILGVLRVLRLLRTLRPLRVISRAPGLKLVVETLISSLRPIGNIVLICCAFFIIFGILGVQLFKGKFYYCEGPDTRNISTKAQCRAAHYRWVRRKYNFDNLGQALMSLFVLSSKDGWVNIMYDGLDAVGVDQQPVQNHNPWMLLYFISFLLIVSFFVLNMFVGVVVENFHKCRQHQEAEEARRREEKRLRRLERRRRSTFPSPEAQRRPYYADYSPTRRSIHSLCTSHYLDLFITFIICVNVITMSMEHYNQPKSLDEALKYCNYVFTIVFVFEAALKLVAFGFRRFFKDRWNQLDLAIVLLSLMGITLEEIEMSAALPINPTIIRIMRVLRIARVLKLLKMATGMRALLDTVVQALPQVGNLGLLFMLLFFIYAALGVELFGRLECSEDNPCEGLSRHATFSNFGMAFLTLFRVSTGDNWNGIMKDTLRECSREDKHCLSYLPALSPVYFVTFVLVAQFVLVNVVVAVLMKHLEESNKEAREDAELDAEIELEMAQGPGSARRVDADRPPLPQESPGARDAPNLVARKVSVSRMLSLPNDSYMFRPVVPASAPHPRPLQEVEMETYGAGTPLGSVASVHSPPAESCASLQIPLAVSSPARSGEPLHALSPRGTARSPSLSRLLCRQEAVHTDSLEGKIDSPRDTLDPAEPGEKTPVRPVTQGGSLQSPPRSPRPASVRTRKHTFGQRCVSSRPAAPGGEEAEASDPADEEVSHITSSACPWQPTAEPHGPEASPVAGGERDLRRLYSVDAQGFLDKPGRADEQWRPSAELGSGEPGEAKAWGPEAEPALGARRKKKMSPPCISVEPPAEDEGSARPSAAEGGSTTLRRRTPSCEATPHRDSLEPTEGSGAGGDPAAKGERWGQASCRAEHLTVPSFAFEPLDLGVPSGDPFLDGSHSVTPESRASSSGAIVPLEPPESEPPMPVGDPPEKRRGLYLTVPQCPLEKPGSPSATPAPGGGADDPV

SMILES | IC50 [nM]
COc1ccc([C@H]2C[C@@H]2C(=O)N[C@H](C)c2cnc(OCC(F)(F)F)cn2)c(F)c1 (relative stereo) [Example 270, (1S*,2S*)-2-(2-fluoro-4-methoxyphenyl)-N-((R)-1-(5-(2,2,2-trifluoroethoxy)pyrazin-2-yl)ethyl)cyclopropanecarboxamide] | ≤ 300
C[C@@H](NC(=O)[C@H]1C[C@@H]1c1c(F)cc(F)cc1F)c1cnc(OCC(F)(F)F)cn1 (relative stereo) [Example 271, (1S*,2S*)-N-((R)-1-(5-(2,2,2-trifluoroethoxy)pyrazin-2-yl)ethyl)-2-(2,4,6-trifluorophenyl) cyclopropanecarboxamide] | ≤ 300
Cc1cccc([C@H]2C[C@@H]2C(=O)N[C@H](C)c2cnc(OCC(F)(F)F)cn2)c1 (relative stereo) [Example 273, (1S*,2S*)-2-m-tolyl-N-((R)-1-(5-(2,2,2-trifluoroethoxy)pyrazin-2-yl)ethyl)cyclopropanecarboxamide] | ≤ 300
C[C@@H](NC(=O)[C@H]1C[C@@H]1c1cccc2cc[nH]c12)c1ccc(OCC(F)(F)F)cn1 (relative stereo) [Example 275, (1S*,2S*)-2-(1H-indol-7-yl)-N-((R)-1-(5-(2,2,2-trifluoroethoxy)pyridin-2-yl)ethyl)cyclopropanecarboxamide] | ≤ 300
C[C@@H](NC(=O)[C@@H]1C[C@H]1c1cccc2cc[nH]c12)c1ccc(OCC(F)(F)F)cn1 (relative stereo) [Example 276, (1R*,2R*)-2-(1H-indol-7-yl)-N-((R)-1-(5-(2,2,2-trifluoroethoxy)pyridin-2-yl)ethyl)cyclopropanecarboxamide] | ≤ 300
C[C@@H](NC(=O)[C@@H]1C[C@H]1c1cccc2[nH]ccc12)c1ccc(OCC(F)(F)F)cn1 (relative stereo) [Example 277, (1R*,2R*)-2-(1H-indol-4-yl)-N-((R)-1-(5-(2,2,2-trifluoroethoxy)pyridin-2-yl)ethyl)cyclopropanecarboxamide] | ≤ 300
C[C@@H](NC(=O)[C@@H]1C[C@H]1c1cccc2[nH]ccc12)c1cnc(OCC(F)(F)F)cn1 (relative stereo) [Example 279, (1R*,2R*)-2-(1H-Indol-4-yl)-N-((R)-1-(5-(2,2,2-trifluoroethoxy)pyrazin-2-yl)ethyl)cyclopropanecarboxamide] | ≤ 300
C[C@@H](NC(=O)[C@H]1C[C@@H]1c1ccccc1)c1ccc(OCC(F)(F)F)cn1 (relative stereo) [Example 280, (1S*,2S*)-2-phenyl-N-((R)-1-(5-(2,2,2-trifluoroethoxy)pyridin-2-yl)ethyl)cyclopropanecarboxamide] | ≤ 300
C[C@@H](NC(=O)[C@H]1C[C@@H]1c1ccccc1)c1cnc(OCC(F)(F)F)cn1 (relative stereo) [Example 282, (1S*,2S*)-2-phenyl-N-((R)-1-(5-(2,2,2-trifluoroethoxy)pyrazin-2-yl)ethyl)cyclopropanecarboxamide] | ≤ 300
C[C@@H](NC(=O)[C@H]1C[C@@H]1c1ccccc1)c1ccc(OCC(F)(F)F)nc1 (relative stereo) [Example 284, (1S*,2S*)-2-phenyl-N-((R)-1-(6-(2,2,2-trifluoroethoxy)pyridin-3-yl)ethyl)cyclopropanecarboxamide] | ≤ 300
C[C@@H](NC(=O)[C@H]1C[C@@H]1c1nc2ccccc2[nH]1)c1cnc(OCC(F)(F)F)cn1 (relative stereo) [Example 286, (1S*,2S*)-2-(1H-benzo[d]imidazol-2-yl)-N-((R)-1-(5-(2,2,2-trifluoroethoxy)pyrazin-2-yl)ethyl)cyclopropanecarboxamide] | ≤ 300
C[C@@H](NC(=O)[C@H]1C[C@@H]1c1nc2ccccc2[nH]1)c1ccc(OCC(F)(F)F)nc1 (relative stereo) [Example 287, (1S*,2S*)-2-(1H-benzo[d]imidazol-2-yl)-N-((R)-1-(6-(2,2,2-trifluoroethoxy)pyridin-3-yl)ethyl)cyclopropanecarboxamide] | ≤ 300
C[C@@H](NC(=O)[C@@H]1C[C@H]1c1nc2cc(F)ccc2[nH]1)c1ccc(OCC(F)(F)F)nc1 (relative stereo) [Example 289, (1R*,2R*)-2-(5-fluoro-1H-benzo[d]imidazol-2-yl)-N-((R)-1-(6-(2,2,2-trifluoroethoxy)pyridin-3-yl)ethyl) cyclopropanecarboxamide] | ≤ 300
C[C@@H](NC(=O)[C@H]1C[C@@H]1COc1cccc(F)c1)c1ccc(OCC(F)(F)F)cn1 (relative stereo) [Example 294, (1S*,2S*)-2-((3-fluorophenoxy)methyl)-N-((R)-1-(5-(2,2,2-trifluoroethoxy)pyridin-2-yl)ethyl)cyclopropanecarboxamide] | ≤ 300
C[C@@H](NC(=O)[C@H]1C[C@@H]1COc1ccc(F)cc1)c1ccc(OCC(F)(F)F)cn1 (relative stereo) [Example 296, (1S*,2S*)-2-((4-fluorophenoxy)methyl)-N-((R)-1-(5-(2,2,2-trifluoroethoxy)pyridin-2-yl)ethyl)cyclopropanecarboxamide] | ≤ 300
C[C@@H](NC(=O)[C@H]1C[C@@H]1c1ccc(OCc2ccccn2)cc1)c1ccc(OCC(F)(F)F)cn1 (relative stereo) [Example 305, (1S*,2S*)-2-(4-(pyridin-2-ylmethoxy)phenyl)-N-((R)-1-(5-(2,2,2-trifluoroethoxy)pyridin-2-yl)ethyl)cyclopropanecarboxamide] | ≤ 300
C[C@@H](NC(=O)[C@H]1C[C@@H]1c1cccc(OCc2ccccn2)c1)c1ccc(OCC(F)(F)F)cn1 (relative stereo) [Example 306, (1S*,2S*)-2-(3-(pyridin-2-ylmethoxy)phenyl)-N-((R)-1-(5-(2,2,2-trifluoroethoxy)pyridin-2-yl)ethyl)cyclopropanecarboxamide] | ≤ 300
COc1ccc([C@H]2C[C@@H]2C(=O)N[C@H](C)c2ccc(OCC3CC3)cn2)cc1C (relative stereo) [Example 307, (1S*,2S*)-N-((R)-1-(5-(cyclopropyl-methoxy)pyridin-2-yl)ethyl)-2-(4-methoxy-3-methylphenyl) cyclopropanecarboxamide] | ≤ 300
COc1ccc([C@H]2C[C@@H]2C(=O)N[C@H](C)c2cnc(OCC(F)(F)F)cn2)cc1C (relative stereo) [Example 309, (1S*,2S*)-2-(4-methoxy-3-methylphenyl)-N-((R)-1-(5-(2,2,2-trifluomethoxy)pyrazin-2-yl)ethyl)cyclopropanecarboxamide] | ≤ 300
COc1ccc([C@@H]2C[C@H]2C(=O)N[C@H](C)c2cnc(OCC(F)(F)F)cn2)cc1C (relative stereo) [Example 310, (1R*,2R*)-2-(4-methoxy-3-methylphenyl)-N-((R)-1-(5-(2,2,2-trifluoroethoxy)pyrazin-2-yl)ethyl)cyclopropanecarboxamide] | ≤ 300
C[C@@H](NC(=O)[C@H]1C[C@@H]1c1cccc2cc[nH]c12)c1ccc(OCC2CC2)cn1 (relative stereo) [Example 316, (1S*,2S*)-N-((R)-1-(5-(cyclopropylmethoxy)pyridin-2-yl)ethyl)-2-(1H-indol-7-yl)cyclopropanecarboxamide] | ≤ 300
C[C@@H](NC(=O)[C@@H]1C[C@H]1c1cccc2cc[nH]c12)c1ccc(OCC2CC2)cn1 (relative stereo) [Example 317, (1R*,2R*)-N-((R)-1-(5-(cyclopropylmethoxy)pyridin-2-yl)ethyl)-2-(1H-indol-7-yl)cyclopropanecarboxamide] | ≤ 300
C[C@@H](NC(=O)[C@H]1C[C@@H]1COc1ccccc1)c1cnc(OCC(F)(F)F)cn1 (relative stereo) [Example 318, (1S*,2S*)-2-(phenoxymethyl)-N-((R)-1-(5-(2,2,2-trifluoroethoxy)pyrazin-2-yl)ethyl)cyclopropanecarboxamide] | ≤ 300
C[C@@H](NC(=O)[C@H]1C[C@@H]1COc1ccccc1)c1ccc(OCC(F)(F)F)nc1 (relative stereo) [Example 320, (1S*,2S*)-2-(phenoxymethyl)-N-((R)-1-(6-(2,2,2-trifluoroethoxy)pyridin-3-yl)ethyl)cyclopropanecarboxamide] | ≤ 300
C[C@@H](NC(=O)[C@H]1C[C@@H]1c1cccc2cc[nH]c12)c1cnc(OCC(F)(F)F)cn1 (relative stereo) [Example 322, (1S*,2S*)-2-(1H-indol-7-yl)-N-((R)-1-(5-(2,2,2-trifluoroethoxy)pyrazin-2-yl)ethyl)cyclopropanecarboxamide] | ≤ 300
C[C@@H](NC(=O)[C@@H]1C[C@H]1c1cccc2cc[nH]c12)c1cnc(OCC(F)(F)F)cn1 (relative stereo) [Example 323, (1R*,2R*)-2-(1H-indol-7-yl)-N-((R)-1-(5-(2,2,2-trifluoroethoxy)pyrazin-2-yl)ethyl)cyclopropanecarboxamide] | ≤ 300
